Measured values taken from US20110218215A1, “Compositions and Methods for Treating Social Anxiety” (priority 2010, published 2011).

System: performance anxiety in the context of public speaking
Experiment: Open clinical trial: oral doses taken before public speaking, subject self-reports
Format: in vivo, human
Conditions: Subject 2, 40 mg propranolol HCl alone
Text: Subjects were selected based on their history of experiencing performance anxiety in the context of public speaking. Subjects received oral doses of the present composition, as described below, at various times prior to speaking engagements. The parameters assessed included but were not limited to the following: tremor of voice and hands, urinary and/or fecal urgency, tachycardia, anxiety, and side effects (e.g., dry mouth).

Question: What does the source list for CC(C)NCC(O)COc1cccc2ccccc12.Cl (racemic) [propranolol HCl, (RS)-1-(isopropylamino)-3-(1-naphthyloxy)propan-2-ol]?
Answer: fecal urgency (ninety minutes prior): did report fecal urgency; quality of presentation (ninety minutes prior): less colorful and confident presentation; voice tremor (ninety minutes prior): no tachycardia or voice tremor; tachycardia (ninety minutes prior to public speaking): no tachycardia
